Source: publication PMC8201054, “A Novel Benzopyrane Derivative Targeting Cancer Cell Metabolic and Survival Pathways” (Cancers, 2021)
pIC50: −log10 of the molar value.

Assays:
[1] = molecular target: T1, inositol-3-phosphate synthase (Homo sapiens, UniProt Q9NPH2); assay: DARTS proteomics in HEK293T lysate ([…]); type: cell-based
T1 construct: gene ISYNA1
T1 sequence (Q9NPH2 1-558): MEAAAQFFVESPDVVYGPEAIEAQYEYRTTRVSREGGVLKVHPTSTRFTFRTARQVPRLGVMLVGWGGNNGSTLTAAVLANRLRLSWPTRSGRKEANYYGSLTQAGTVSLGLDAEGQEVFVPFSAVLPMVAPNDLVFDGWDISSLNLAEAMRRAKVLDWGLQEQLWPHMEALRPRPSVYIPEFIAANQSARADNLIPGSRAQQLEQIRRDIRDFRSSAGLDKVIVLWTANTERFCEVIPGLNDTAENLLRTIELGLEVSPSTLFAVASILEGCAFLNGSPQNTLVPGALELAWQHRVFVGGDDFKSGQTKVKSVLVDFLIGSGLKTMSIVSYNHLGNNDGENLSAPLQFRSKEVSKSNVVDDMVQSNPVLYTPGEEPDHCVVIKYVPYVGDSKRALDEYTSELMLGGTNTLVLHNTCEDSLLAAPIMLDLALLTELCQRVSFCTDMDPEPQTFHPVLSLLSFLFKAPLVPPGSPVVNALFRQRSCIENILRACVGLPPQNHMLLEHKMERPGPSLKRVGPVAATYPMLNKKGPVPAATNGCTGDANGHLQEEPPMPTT

[2] = molecular target: T2, thioredoxin reductase 1 (TrxR) (Homo sapiens, UniProt Q16881); assay: DARTS proteomics in HEK293T lysate; TrxR activity assay in lysates of treated HCT116 cells; type: cell-based
T2 construct: gene TXNRD1
T2 sequence (Q16881 1-649): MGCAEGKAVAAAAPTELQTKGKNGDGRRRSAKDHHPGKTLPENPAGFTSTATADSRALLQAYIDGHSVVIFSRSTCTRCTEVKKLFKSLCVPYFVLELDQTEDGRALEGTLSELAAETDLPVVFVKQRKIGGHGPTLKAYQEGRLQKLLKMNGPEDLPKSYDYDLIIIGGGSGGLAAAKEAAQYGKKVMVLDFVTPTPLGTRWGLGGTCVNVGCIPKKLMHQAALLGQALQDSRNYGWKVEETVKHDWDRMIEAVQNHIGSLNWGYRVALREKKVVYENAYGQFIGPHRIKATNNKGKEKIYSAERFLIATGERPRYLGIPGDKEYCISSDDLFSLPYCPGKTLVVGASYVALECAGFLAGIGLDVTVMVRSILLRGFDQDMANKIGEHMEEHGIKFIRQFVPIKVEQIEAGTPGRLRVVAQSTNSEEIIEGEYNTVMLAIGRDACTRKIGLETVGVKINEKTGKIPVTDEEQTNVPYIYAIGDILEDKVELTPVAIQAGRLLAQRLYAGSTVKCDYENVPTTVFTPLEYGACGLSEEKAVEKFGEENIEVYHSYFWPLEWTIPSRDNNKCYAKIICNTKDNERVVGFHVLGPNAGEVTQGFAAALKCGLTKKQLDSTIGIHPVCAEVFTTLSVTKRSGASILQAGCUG

CC1(C)[C@H]2COc3ccc4ccccc4c3[C@H]2N=C2SC(c3ccccc3)=C(c3ccccc3)N21 [SIMR1281, (8aS,14aS)-9,9-dimethyl-11,12-diphenyl-8a,14a-dihydro-8H,9H-benzo[5, 6]chromeno[4,3-d]thiazolo[3,2-a]pyrimidine]
DARTS proteomics in HEK293T lysate (0.01-1 μM) [1]: SIMR1281 has shown a concentration-dependent affinity toward the inositol-3-phosphate synthase enzyme in the DARTS proteomic assay
pIC50 [2]: 5.62
